The nature of series [1]: Absorption vs. first pass metabolism: Cmax with and without 1-aminobenzotriazole (ABT) pre-treatment. It is filed as in vivo, mouse. Particulars: ICR mice, ABT 150 mg/kg p.o. 2 h before; compound 10 mg/kg p.o. The protocol:
Absorption Vs. First Pass Metabolism
In this study, the absorption was examined as compared to first pass metabolism of the compounds of the present invention. ICR mice (Hilltop) were pre-treated with 1-aminobenzotriazole (ABT), a nonselective inhibitor of cytochrome P450 enzymes to inhibit Cyp450-mediated degradation of the compounds in liver.
ABT was administered at 150 mg/kg in 5 mL/kg of 0.04% ethanol in 0.5% methyl cellulose (w/v) by oral gavage, 2 hours prior to test compound administration. The compounds 20AA and 20AC were administered by oral gavage at 10 mg/kg in 10 mL/kg of 20% PEG400/80% (0.5% (w/v) CMC containing 0.25% (v/v) Tween 80) (v/v), 2 hours after the ABT treatment. Blood was collected via orbital bleeding at predose, 0.25, 0.5, 1, 2, and 4 hours post-dose and the quantification of compound levels in plasma was accomplished by means of LC-MS/MS analysis as described in Example 59. Reference compound “Propranolol” that is known to be metabolized by Cyp450 was used as a positive control.
FIG. 4 depicts the Cmax (nM) of the compounds of the present invention with and without ABT pre-treatment.

Another series concerns Mouse STC-1 cells. In words: STC-1 GLP-1 assay. It counts as cell-based. The following applies: GLP-1 secretion, 2 h, coded A-C, read-out: Mouse STC-1 HTRF GLP-1 Activity (EC50). Here is the method: We evaluated Compounds of the present invention for their ability to induce GLP-1 production in mouse intestinal neuroendocrine tumor cells. Mouse STC-1 cells were cultured and maintained in high glucose DMEM (Sigma #5796) supplemented with 15% horse serum, 5% Fetal Bovine Serum (FBS), 1% penicillin/streptomycin, and 2 mM L-alanine L-glutamine (GlutaMax). Two days prior to analysis of GLP-1 secretion cells were harvested using Accutase (Sigma), spun down then resuspended in high glucose DMEM media containing 2 mM L-alanine L-glutamine (GlutaMax), 10% charcoal-dextran stripped FBS, and 50 μg/mL Gentamicin, at a density of 100,000 cells/mL. 100 μL of cell suspension was added to each well of a 96-well Poly-D-Lysine coated culture plate (Sigma; cat #2382493) and was incubated at 37° C. with 5% CO2.
Compounds were initially diluted in 100% DMSO (12-point serial dilution by half logs) in a 96-well plate and then were further diluted 1:500 in Hanks' Balanced Salt Solution (HBSS) containing protease inhibitor cocktail, DPP-IV inhibitor, and 0.1% fatty acid free bovine serum albumin. On the day of the experiment cells were washed once with HBSS. After wash, 100 μL of test compound was added to each well. The plate was incubated at 37° C. with 5% CO2 for 2 h. Supernatants were collected and GLP-1 secretion was measured using the Cisbio™ Active GLP-1 HTRF Assay Kit (Cisbio). Briefly, Anti-GLP-1-d2 conjugate and Anti-GLP-1 Terbium Cryptate conjugate stock solutions were prepared as per kit instructions. The two solutions were pre-mixed and 10 μL were transferred to a 384-well low volume plate (Greiner; cat #784075). 10 μL of collected supernatants were added to wells already containing the conjugate solution. The plate was covered and incubated at room temperature overnight. The plate was read on an Envision™ plate reader (Perkin Elmer).
In Table 34, EC50 values obtained from the STC-1 GLP-1 production assay for compounds of the present invention are summarized.
For orientation: TR-FRET usually uses a lanthanide donor and a delayed reading to cut background.

In the next series the target is T1, mouse TGR5 receptor (Mus musculus, UniProt Q80SS6).
T1 construct: expressed in transfected cells; host or cells: HEK293-EBNA (293 c18, ATCC CRL10852), Hygromycin B selection
T1 sequence (Q80SS6 1-329): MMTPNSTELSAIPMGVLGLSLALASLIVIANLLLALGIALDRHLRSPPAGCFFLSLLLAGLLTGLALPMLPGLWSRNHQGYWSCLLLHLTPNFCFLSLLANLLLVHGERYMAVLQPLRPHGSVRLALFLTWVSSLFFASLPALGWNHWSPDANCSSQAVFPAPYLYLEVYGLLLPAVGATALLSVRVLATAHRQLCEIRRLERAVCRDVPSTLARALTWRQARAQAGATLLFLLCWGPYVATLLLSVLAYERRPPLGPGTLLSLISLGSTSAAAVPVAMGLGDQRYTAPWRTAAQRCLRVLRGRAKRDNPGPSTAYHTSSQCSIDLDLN
The series can be described thus: Mouse TGR5 cAMP production assay (luminescent, DiscoveRx cAMP XS+). Particulars: HEK293-EBNA cells overexpressing mouse TGR5, luminescent cAMP XS+; coded A-D; read-out: Mouse TGR5 Lum. cAMP Activity (EC50). It counts as cell-based. The procedure, abridged:
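HEK293-EBNA cells stably expressing mouse TGR5 were suspended in serum-free DMEM with 500 μM IBMX and preincubated 20 min with cAMP antibody. They were then exposed to half-log compound dilutions for 1 h at room temperature. cAMP measured by enzyme-fragment complementation luminescence after overnight incubation; EC50 derived.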
Background: cAMP levels reflect the balance of adenylyl cyclase and phosphodiesterase activity.

A further series has as its target T2, human TGR5 receptor (Homo sapiens, UniProt Q8TDU6).
T2 construct: host or cells: CHO-K1 (hTGR5-CHO cells)
T2 sequence (Q8TDU6 1-330): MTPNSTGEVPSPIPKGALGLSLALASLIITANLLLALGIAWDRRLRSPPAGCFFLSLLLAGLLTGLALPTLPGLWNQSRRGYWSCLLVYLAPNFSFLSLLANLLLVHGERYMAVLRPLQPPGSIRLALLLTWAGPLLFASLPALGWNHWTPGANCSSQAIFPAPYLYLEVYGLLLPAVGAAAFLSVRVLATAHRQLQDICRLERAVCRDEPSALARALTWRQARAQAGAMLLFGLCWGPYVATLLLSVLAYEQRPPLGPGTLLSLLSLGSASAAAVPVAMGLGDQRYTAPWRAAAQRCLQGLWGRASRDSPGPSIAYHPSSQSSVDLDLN
In words: Human TGR5 cAMP production assay. It counts as cell-based. The following applies: human TGR5, luminescent cAMP assay; coded A-D; read-out: Human TGR5 Lum. cAMP Activity (EC50). In outline: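 Intracellular cAMP read by luminescent enzyme-complementation (XS+) after overnight development, following 1 h room-temperature compound treatment of hTGR5-CHO-K1 cells in IBMX plus anti-cAMP antibody. Compounds tested as half-log dilution series; EC50 derived.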

As a reminder, the EC50 is the concentration that produces a half-maximal response.

Each structure is given as a SMILES string. Bounds are passed on as bounds.

As to `CC(C)NCC(O)COc1cccc2ccccc12` (stereo not shown) [propranolol, Propranolol, reference compound], the “Cmax with versus without ABT pre-treatment” value in series [1] is reported as “significantly higher”.

On to `COc1cnccc1-c1cccc(C(C)(C)NS(=O)(=O)c2ccccc2[N+](=O)[O-])c1` [Compound 2AU], for which the EC50 in the series on Mouse STC-1 cells is 1000 to 30000 nM; on mouse TGR5 receptor it was under 100 nM; at human TGR5 receptor it was under 100 nM.

For `COc1cnccc1-c1cccc(C(C)(C)NS(=O)(=O)c2ccccc2C(F)(F)F)c1` [Compound 2AV], the EC50 with Mouse STC-1 cells was 1000 to 30000 nM; on mouse TGR5 receptor, 100 to 999 nM; on human TGR5 receptor, under 100 nM.

For `COc1cnccc1-c1cccc([C@H](C)NS(=O)(=O)c2ccccc2C(F)(F)F)c1` [Compound 2BQ], the EC50 in the series on Mouse STC-1 cells was 1000 to 30000 nM; at mouse TGR5 receptor, 100 to 999 nM; at human TGR5 receptor it was under 100 nM.

Source of the values: patent US11236055B2 (Venenum Biodesign, LLC, priority 2016, dated 2022).
